Measurements taken from US20200397728A1, “PHARMACEUTICAL FORMULATION FOR CARGLUMIC ACID” (RECORDATI S.p.A., priority 2019, published 2020).
Like-named read-outs stand apart in the source and are kept apart here.

Legend:
[1] = Stability/compatibility of carglumic acid-excipient binary mixes, HPLC chromatographic purity; format: physicochemical
Method: Carglumic acid alone was also stored under the same conditions. […] Chromatographic purity have been tested for all the reported combinations and storage conditions. Under these chromatographic conditions the retention time (Rt) of carglumic acid is about 6.6 min. […] [table] [table]

[2] = cited from earlier work
[3] = 25° C./60% RH Closed bottles, 15 days
[4] = 25° C./60% RH Closed bottles, 30 days
[5] = 25° C./60% RH Open bottles, 7 days
[6] = 25° C./60% RH Open bottles, 15 days
[7] = 40° C./75% RH Closed bottles, 15 days
[8] = 40° C./75% RH Closed bottles, 30 days

NC(=O)N[C@@H](CCC(=O)O)C(=O)O [Carglumic Acid, Carglumic acid]
Imp. 1 RRT 1.93 [1, 3]: 0.01% | Imp. 2 RRT 2.21 [1, 3]: 0.00% | Imp. 5a RRT 2.34 [1, 3]: 0.01% | Imp. 5b RRT 2.77 [1, 3]: 0.00% | Imp. 6 RRT 1.20 [1, 3]: 0.00% | Max, single unknown impurity [1, 3]: 0.03% | Total impurities [1, 3]: 0.08% | Imp. 1 RRT 1.93 [1, 4]: 0.03% | Imp. 2 RRT 2.21 [1, 4]: 0.01% | Imp. 5a RRT 2.34 [1, 4]: 0.01% | Imp. 5b RRT 2.77 [1, 4]: 0.00% | Imp. 6 RRT 1.20 [1, 4]: 0.00% | Max, single unknown impurity [1, 4]: 0.03% | Total impurities [1, 4]: 0.08% | Imp. 1 RRT 1.93 [1, 5]: 0.03% | Imp. 2 RRT 2.21 [1, 5]: 0.01% | Imp. 5a RRT 2.34 [1, 5]: 0.02% | Imp. 5b RRT 2.77 [1, 5]: 0.00% | Imp. 6 RRT 1.20 [1, 5]: 0.00% | Max, single unknown impurity [1, 5]: 0.05% | Total impurities [1, 5]: 0.18% | Imp. 1 RRT 1.93 [1, 6]: 0.04% | Imp. 2 RRT 2.21 [1, 6]: 0.01% | Imp. 5a RRT 2.34 [1, 6]: 0.00% | Imp. 5b RRT 2.77 [1, 6]: 0.00% | Imp. 6 RRT 1.20 [1, 6]: 0.00% | Max, single unknown impurity [1, 6]: 0.02% | Total impurities [1, 6]: 0.11% | Imp. 1 RRT 1.93 [1, 7]: 0.03% | Imp. 2 RRT 2.21 [1, 7]: 0.01% | Imp. 5a RRT 2.34 [1, 7]: 0.01% | Imp. 5b RRT 2.77 [1, 7]: 0.01% | Imp. 6 RRT 1.20 [1, 7]: 0.00% | Max, single unknown impurity [1, 7]: 0.02% | Total impurities [1, 7]: 0.12% | Imp. 1 RRT 1.93 [1, 8]: 0.03% | Imp. 2 RRT 2.21 [1, 8]: 0.01% | Imp. 5a RRT 2.34 [1, 8]: 0.01% | Imp. 5b RRT 2.77 [1, 8]: 0.00% | Imp. 6 RRT 1.20 [1, 8]: 0.00% | Max, single unknown impurity [1, 8]: 0.03% | Total impurities [1, 8]: 0.11% | Imp. 1 RRT 1.93 ([1]; 60° C. Closed bottles, 1 day): 0.03% | Imp. 2 RRT 2.21 ([1]; 60° C. Closed bottles, 1 day): 0.01% | Imp. 5a RRT 2.34 ([1]; 60° C. Closed bottles, 1 day): 0.01% | Imp. 5b RRT 2.77 ([1]; 60° C. Closed bottles, 1 day): 0.00% | Imp. 6 RRT 1.20 ([1]; 60° C. Closed bottles, 1 day): 0.00% | Max, single unknown impurity ([1]; 60° C. Closed bottles, 1 day): 0.02% | Total impurities ([1]; 60° C. Closed bottles, 1 day): 0.10% | Imp. 1 RRT 1.93 ([1]; t = 0): 0.02% | Imp. 2 RRT 2.21 ([1]; t = 0): 0.01% | Imp. 5a RRT 2.34 ([1]; t = 0): 0.00% | Imp. 5b RRT 2.77 ([1]; t = 0): 0.01% | Imp. 6 RRT 1.20 ([1]; t = 0): 0.00% | Max, single unknown impurity ([1]; t = 0): 0.03% | Total impurities ([1]; t = 0): 0.07% | Solubility ([2]; boiling water): soluble | Solubility ([2]; cold water): slightly soluble | Solubility ([2]; organic solvents (cyclohexane, dichloromethane, ether)): practically insoluble
